ChEMBL document CHEMBL1201862, “PubChem BioAssay data set” (2004)
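These data come from cells grown in 96-well plates and exposed to compound for 48 hours at five concentrations. Abbreviation: GI50, concentration required for 50% inhibition of growth.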 Calls of active or inactive are those of the source. No stated cut-off is given here; in the data, active = GI50 up to about 1.1 µM and inactive = higher.

Assays:
Assay in all cases: NCI tumour cell line growth inhibition, 48 h
[1] = test system: HL-60
[2] = test system: SK-MEL-28
[3] = test system: A498
[4] = test system: SF-539
[5] = test system: MDA-MB-435
[6] = test system: MCF7
[7] = test system: LOX IMVI
[8] = test system: UO-31
[9] = test system: SF-295
[10] = test system: CAKI-1
[11] = test system: A549
[12] = test system: RPMI-8226
[13] = test system: Hs-578T
[14] = test system: IGROV-1
[15] = test system: EKVX
[16] = test system: HT-29
[17] = test system: HCT-15
[18] = test system: HCT-116
[19] = test system: SF-268
[20] = test system: SK-MEL-2
[21] = test system: SK-MEL-5
[22] = test system: SNB-75
[23] = test system: OVCAR-8
[24] = test system: 786-0
[25] = test system: UACC-62
[26] = test system: DU-145
[27] = test system: BT-549
[28] = test system: OVCAR-3
[29] = test system: ACHN
[30] = test system: SW-620
[31] = test system: PC-3
[32] = test system: NCI-H23
[33] = test system: MOLT-4
[34] = test system: HCC 2998
[35] = test system: Malme-3M
[36] = test system: NCI/ADR-RES
[37] = test system: NCI-H460
[38] = test system: HOP-62
[39] = test system: COLO 205
[40] = test system: SNB-19
[41] = test system: UACC-257
[42] = test system: TK-10
[43] = test system: M14
[44] = test system: CCRF-CEM
[45] = test system: OVCAR-4
[46] = test system: U-251
[47] = test system: MDA-MB-231
[48] = test system: MDA-N
[49] = test system: T47D
[50] = test system: KM12
[51] = test system: SK-OV-3
[52] = test system: NCI-H522
[53] = test system: OVCAR-5
[54] = test system: SN12C
[55] = test system: SR
[56] = test system: RXF 393
[57] = test system: K562
[58] = test system: NCI-H226
[59] = test system: HOP-92

With `CCOC(=O)c1c2ccccc2n2c(N)c(C(N)=O)nnc12` the GI50 [1] was > 100 µM (inactive), the GI50 [2] was > 100 µM (inactive) and the GI50 [3] was 21 µM (inactive). For the same molecule, the GI50 [4] was 16.2 µM (inactive), the GI50 [5] was > 100 µM (inactive) and the GI50 [6] was 17.7 µM (inactive). The GI50 [7] was 28.2 µM (inactive), the GI50 [8] was 74.3 µM (inactive) and the GI50 [9] was 33.1 µM (inactive). The GI50 [10] was 32.8 µM (inactive), the GI50 [11] was > 100 µM (inactive) and the GI50 [12] was > 100 µM (inactive). The GI50 [13] was 4.36 µM (inactive), the GI50 [14] was 1.33 µM (inactive) and the GI50 [15] was 18 µM (inactive). The GI50 [16] was > 100 µM (inactive), the GI50 [17] was 78.9 µM and the GI50 [18] was 31.1 µM (inactive). For the same molecule, the GI50 [19] was 16 µM (inactive), the GI50 [20] was 20.5 µM (inactive) and the GI50 [21] was 74.3 µM (inactive). For the same molecule, the GI50 [22] was 11.7 µM (inactive), the GI50 [23] was 16.1 µM (inactive) and the GI50 [24] was 21.9 µM (inactive). For the same molecule, the GI50 [25] was 19.9 µM (inactive), the GI50 [26] was > 100 µM (inactive) and the GI50 [27] was 22.1 µM (inactive). The GI50 [28] was > 100 µM (inactive), the GI50 [29] was 6.07 µM (inactive) and the GI50 [30] was > 100 µM (inactive). For the same molecule, the GI50 [31] was 60 µM (inactive), the GI50 [32] was 16.7 µM (inactive) and the GI50 [33] was > 100 µM (inactive). For the same molecule, the GI50 [34] was > 100 µM (inactive), the GI50 [35] was 70.8 µM (inactive) and the GI50 [36] was 35.3 µM (inactive). The GI50 [37] was 50.4 µM (inactive), the GI50 [38] was 17.3 µM (inactive) and the GI50 [39] was > 100 µM (inactive). The GI50 [40] was 19.3 µM (inactive), the GI50 [41] was 99.8 µM (inactive) and the GI50 [42] was 11.3 µM (inactive). The GI50 [43] was > 100 µM (inactive), the GI50 [44] was > 100 µM (inactive) and the GI50 [45] was > 100 µM (inactive). The GI50 [46] was 15.2 µM (inactive), the GI50 [47] was 18.7 µM (inactive) and the GI50 [48] was > 100 µM (inactive). The GI50 [49] was 43.1 µM (inactive), the GI50 [50] was > 100 µM (inactive) and the GI50 [51] was 13.9 µM (inactive). For the same molecule, the GI50 [52] was 28.8 µM (inactive), the GI50 [53] was > 100 µM (inactive) and the GI50 [54] was > 100 µM (inactive). For the same molecule, the GI50 [55] was > 100 µM (inactive), the GI50 [56] was 16.1 µM (inactive) and the GI50 [57] was > 100 µM (inactive).

With `COc1ccc(/C=C2\CCc3cc(OC)c(OC)cc3C2=O)cc1` the GI50 [1] was 9.25 µM (inactive), the GI50 [2] was > 10 µM (inactive) and the GI50 [4] was > 10 µM (inactive). The GI50 [5] was > 10 µM (inactive), the GI50 [6] was > 10 µM (inactive) and the GI50 [7] was > 10 µM (inactive). The GI50 [8] was > 10 µM (inactive), the GI50 [9] was > 10 µM (inactive) and the GI50 [10] was > 10 µM (inactive). The GI50 [11] was > 10 µM (inactive), the GI50 [12] was > 10 µM (inactive) and the GI50 [13] was > 10 µM (inactive). For the same molecule, the GI50 [14] was > 10 µM (inactive), the GI50 [15] was > 10 µM (inactive) and the GI50 [16] was > 10 µM (inactive). The GI50 [17] was over 10 µM, the GI50 [18] was > 10 µM (inactive) and the GI50 [19] was > 10 µM (inactive). The GI50 [20] was > 10 µM (inactive), the GI50 [21] was > 10 µM (inactive) and the GI50 [22] was 5.12 µM (inactive). For the same molecule, the GI50 [58] was > 10 µM (inactive), the GI50 [23] was > 10 µM (inactive) and the GI50 [24] was > 10 µM (inactive). For the same molecule, the GI50 [25] was > 10 µM (inactive), the GI50 [26] was > 10 µM (inactive) and the GI50 [27] was > 10 µM (inactive). The GI50 [28] was > 10 µM (inactive), the GI50 [29] was > 10 µM (inactive) and the GI50 [30] was > 10 µM (inactive). For the same molecule, the GI50 [31] was > 10 µM (inactive), the GI50 [32] was > 10 µM (inactive) and the GI50 [33] was > 10 µM (inactive). The GI50 [34] was > 10 µM (inactive), the GI50 [35] was > 10 µM (inactive) and the GI50 [36] was > 10 µM (inactive). The GI50 [37] was > 10 µM (inactive), the GI50 [38] was > 10 µM (inactive) and the GI50 [39] was > 10 µM (inactive). For the same molecule, the GI50 [40] was > 10 µM (inactive), the GI50 [41] was > 10 µM (inactive) and the GI50 [42] was > 10 µM (inactive). For the same molecule, the GI50 [43] was > 10 µM (inactive), the GI50 [44] was > 10 µM (inactive) and the GI50 [59] was > 10 µM (inactive). For the same molecule, the GI50 [45] was > 10 µM (inactive), the GI50 [46] was > 10 µM (inactive) and the GI50 [47] was > 10 µM (inactive). The GI50 [48] was > 10 µM (inactive), the GI50 [49] was > 10 µM (inactive) and the GI50 [50] was > 10 µM (inactive). For the same molecule, the GI50 [51] was > 10 µM (inactive), the GI50 [53] was > 10 µM (inactive) and the GI50 [54] was > 10 µM (inactive). For the same molecule, the GI50 [55] was > 10 µM (inactive), the GI50 [56] was > 10 µM (inactive) and the GI50 [57] was > 10 µM (inactive).

With `CNC(=S)Nc1sc2c(c1C#N)CCCC2` the GI50 [1] was > 75 µM (inactive), the GI50 [2] was > 75 µM (inactive) and the GI50 [3] was > 75 µM (inactive). The GI50 [5] was > 75 µM (inactive), the GI50 [6] was > 75 µM (inactive) and the GI50 [7] was > 75 µM (inactive). The GI50 [8] was > 75 µM (inactive), the GI50 [9] was > 75 µM (inactive) and the GI50 [10] was > 75 µM (inactive). The GI50 [12] was > 75 µM (inactive), the GI50 [13] was > 75 µM (inactive) and the GI50 [14] was > 75 µM (inactive). The GI50 [15] was > 75 µM (inactive), the GI50 [16] was > 75 µM (inactive) and the GI50 [17] was over 75 µM. The GI50 [18] was > 75 µM (inactive), the GI50 [19] was > 75 µM (inactive) and the GI50 [20] was > 75 µM (inactive). The GI50 [21] was > 75 µM (inactive), the GI50 [22] was > 75 µM (inactive) and the GI50 [58] was > 75 µM (inactive). For the same molecule, the GI50 [23] was > 75 µM (inactive), the GI50 [24] was > 75 µM (inactive) and the GI50 [25] was > 75 µM (inactive). The GI50 [26] was > 75 µM (inactive), the GI50 [27] was > 75 µM (inactive) and the GI50 [28] was > 75 µM (inactive). The GI50 [29] was > 75 µM (inactive), the GI50 [30] was > 75 µM (inactive) and the GI50 [31] was > 75 µM (inactive). For the same molecule, the GI50 [32] was > 75 µM (inactive), the GI50 [33] was > 75 µM (inactive) and the GI50 [34] was > 75 µM (inactive). For the same molecule, the GI50 [35] was > 75 µM (inactive), the GI50 [36] was > 75 µM (inactive) and the GI50 [37] was > 75 µM (inactive). For the same molecule, the GI50 [38] was > 75 µM (inactive), the GI50 [39] was > 75 µM (inactive) and the GI50 [40] was > 75 µM (inactive). For the same molecule, the GI50 [41] was > 75 µM (inactive), the GI50 [42] was > 75 µM (inactive) and the GI50 [45] was > 75 µM (inactive). For the same molecule, the GI50 [46] was > 75 µM (inactive), the GI50 [47] was > 75 µM (inactive) and the GI50 [48] was > 75 µM (inactive). For the same molecule, the GI50 [49] was > 75 µM (inactive), the GI50 [50] was > 75 µM (inactive) and the GI50 [52] was > 75 µM (inactive). The GI50 [53] was > 75 µM (inactive), the GI50 [54] was > 75 µM (inactive) and the GI50 [55] was > 75 µM (inactive). The GI50 [56] was > 75 µM (inactive) and the GI50 [57] was > 75 µM (inactive).
